Test results published in patent publication US20170073305A1, “FATTY ACID AMIDES, COMPOSITIONS AND METHODS OF USE” (Catabasis Pharmaceuticals, Inc., priority 2011, published 2017).

Key:
[1] = system: Cystinotic fibroblasts (cell line GM00008, Coriell Cell Repository); assay: cystinotic fibroblast assay (cystine depletion, LC-MS/MS); format: cell-based; details: 50 μM, cells incubated 24 hours, cystine by LC-MS/MS, percentage of control (POC)
Text: Nephropathic cystinosis is an orphan genetic lysosomal storage disorder characterized by a massive accumulation of crystalline cystine within cells. Affected individuals develop a proximal renal tubulopathy and progress, if untreated, to end-stage renal failure. Omran et al (Bioorg. Med. Chem. 2011, p, 3492) described a convenient in vitro system to quickly evaluate compounds that could deplete levels of cystine in cultured fibroblasts. Cystinotic fibroblasts (cell line GM00008, Coriell Cell Repository) were seeded in a 6-well plate and grown in DMEM/15% FBS until confluent. […] Protein quantification was accomplished by dissolving precipitated protein in 0.25 M NaOH and 1 M Tris (pH 7.5), and spectrophotometric measurement using the Bradford method. Compound I-9 was evaluated in this cystinotic fibroblast assay. The level of cystine in this cystinotic cell line was quantitated by LC-MS/MS. […] The level of cystine was expressed as the percentage of control (POC). […] The cystine level was determined as follows: To the 50 μL of supernatant, acetonitrile (400 μL) containing 200 ng/ml Internal standard (deuterated cystine) was added and mixture was vortexed for 1 min followed by centrifugation for 10 minutes. […] The concentration of Cystine was measured by LC-MS/MS. […]

[2] = system: mice lacking cystinosin; details: 200 or 400 mg/kg orally for 7, 30 or 60 days, greatest effect in liver and kidney after 60 days; cited from earlier work
[3] = system: IL-1β; assay: IL-1β gene expression in LPS-stimulated RAW264.7 macrophages; format: cell-based; details: RAW264.7, 2 hours pre-incubation, 100 ng/ml LPS 3 hours, relative to vehicle only control, FIG. 1
Experimental: RAW264.7 macrophages were seeded at a density of 100,000 cells/well in a 96-well plate in DMEM supplemented with 10% FBS and Penn/strep. 16 hours later, medium was aspirated and replaced with 90 μL/well of serum-free DMEM. Fatty acid amides were brought up in 100% EtOH to a concentration of 100 mM and then diluted 1:100 in 100% FBS for a stock solution consisting of 1 mM compound and 1% EtOH. These stock solutions were then diluted 1:10 in FBS supplemented with 1% EtOH to generate a 100 μM of the fatty acid amide. 10 μL was then added to the RAW246.7 cells to generate final concentrations 10 μM of the fatty acid amide or 10 μM each DHA and MMF, along with vehicle only control. The compounds were allowed to pre-incubate for 2 hours before stimulation of 100 ng/ml LPS (10 μL of 1 μg/ml LPS was added to each well). Following 3 hours of LPS stimulation, cells were washed once in 1×PBS, aspirated dry, and flash frozen in liquid nitrogen. […] IL-1β transcript levels were then measured using Taqman primer/probe assay sets (Applied Biosystems), normalized to GAPDH using the deltaCt method, and the data expressed relative to vehicle only control. FIG. 1 summarizes the IL-1β gene expression data on compound I-57 (cellular toxicity was assessed using alamar blue as indicator, abbreviated in the figure as AB). […]

[4] = system: NF-κB; assay: NF-κB luciferase reporter assay in RAW 264.7 macrophages; format: cell-based; details: Mus musculus, RAW264.7; RAW 264.7 3×NF-κB luciferase reporter cells, 2 hour pretreatment, 200 ng/ml LPS for 3 hours; read-out: NF-kB inhibitory activity IC50
Experimental: RAW 264.7 cells stably expressing a 3×NF-κB response element-drive luciferase reporter were seeded into 96 well plates in sera-free medium (Optimem) 18 hours prior to compound application. Compounds of the invention were prepared by first making 100 mM stock solutions in EtOH. Stock solutions were then diluted 1:100 in low LPS FBS (Gemini BenchMark 100-106), mixed vigorously and allowed to incubate at room temperature for 30 minutes. 1:2 serial dilutions were then made in FBS supplemented with 1% EtOH, mixed vigorously, and again allowed to incubate at room temperature for 30 minutes before adding to RAW 264.7 reporter cells (final concentrations: 10% FBS, 100 uM highest compound dilution, 0.1% EtOH) for a 2 hour pretreatment prior to stimulation with LPS. Cells were then stimulated with 200 ng/ml LPS or vehicle control for 3 hours in the presence of the compounds of the invention. A set of six vehicles was left unstimulated with LPS in order to measure the assay floor. AlamarBlue viability dye (Invitrogen) was added to cells simultaneously with the delivery of LPS (final AlamarBlue concentration of 10%). After the 3 h incubation period with LPS, cell viability was measured by reading fluorescence (excitation 550 nm, emission 595 nm) with a Perkin Elmer Victor V plate reader. Then cell media was aspirated from each well. Luciferase signal was then developed by addition of the Britelite Plus reagent (Perkin Elmer). Luciferase activity was measured with the Perkin Elmer Victor V plate reader. NF-κB activity was expressed as a percent of the vehicle control wells (stimulated with LPS). Compounds were tested at 6 dose point titrations in triplicate to determine IC50 values. Table 1 summarizes the IC50 values for a number of fatty acid amides in this NF-κB luciferase reporter assay.

[5] = system: Hmox1; assay: Hmox1 target gene expression in LPS-stimulated RAW264.7 macrophages; format: cell-based; details: RAW264.7, 1.6-50 μM, 2 hours pre-incubation, 100 ng/ml LPS 3 hours, relative to vehicle only control, FIG. 2
Experimental: RAW264.7 macrophages were seeded at a density of 100,000 cells/well in a 96-well plate in DMEM supplemented with 10% FBS and Penn/strep. 16 hours later, medium was aspirated and replaced with 90 uL/well of serum-free DMEM. Fatty acid amides were brought up in 100% EtOH to a concentration of 100 mM and then diluted 1:100 in 100% FBS for a 20× stock solution consisting of 1 mM compound and 1% EtOH. The fatty acid amide 20× stock solutions were diluted 1:2 in FBS supplemented with 1% EtOH for a 500 uM 10× stock solution. The 10× stock solutions were then serially diluted 1:2 in FBS supplemented with 1% EtOH and 10 μL of each dilution was added to the RAW246.7 cells to generate final concentrations of 50, 25, 12.5, 6.25, 3.12 and 1.6 μM. The compounds were allowed to pre-incubate for 2 hours before stimulation of 100 ng/ml LPS (10 μL of 1 μg/ml LPS is added to each well). Following 3 hours of LPS stimulation, cells were washed once in 1×PBS, aspirated dry, and flash frozen in liquid nitrogen. […] Transcript levels were then measured using ABI Taqman primer/probe assay kits, normalized to GAPDH using the deltaCt method, and the data expressed relative to vehicle only control. FIG. 2 summarizes the Hmox data on compound I-57 (cellular toxicity was assessed using alamar blue as indicator, abbreviated in the figure as AB). […]

Structure (SMILES)	IC50 [4]	further results
NCCS [cysteamine, reference compound]		reduction in the cystine level [1]: 45%; cystine levels of tissues [2]: reduce cystine levels of all tissues tested
CC/C=C\C/C=C\C/C=C\C/C=C\C/C=C\CCCC(=O)NCCOCCOCCOC [I-57, (5Z,8Z,11Z,14Z,17Z)-N-(2-(2-(2-methoxyethoxy)ethoxy)ethyl)icosa-5,8,11,14,17-pentaenamide]	< 50 µM	IL-1β gene expression [3]: decrease; Hmox gene expression [5]: upregulation
CC/C=C\C/C=C\C/C=C\C/C=C\C/C=C\C/C=C\CCC(=O)O [DHA, all-cis-4,7,10,13,16,19-docosahexaenoic acid, reference compound]	> 200 µM	
CC/C=C\C/C=C\C/C=C\C/C=C\C/C=C\CCCC(=O)O [EPA, all-cis-5,8,11,14,17-eicosapentaenoic acid, reference compound]	> 200 µM	
CC/C=C\C/C=C\C/C=C\C/C=C\C/C=C\C/C=C\CCC(=O)N[C@H](C(=O)N[C@@H]1[C@@H](O)[C@H](O)[C@@H](CO)O[C@H]1O)C(C)C [I-48, (4Z,7Z,10Z,13Z,16Z,19Z)-N-((S)-3-methyl-1-oxo-1-(((2R,3R,4R,5S,6R)-2,4,5-trihydroxy-6-(hydroxymethyl)tetrahydro-2H-pyran-3-yl)amino)butan-2-yl)docosa-4,7,10,13,16,19-hexaenamide]	< 50 µM	
CC/C=C\C/C=C\C/C=C\C/C=C\C/C=C\C/C=C\CCC(=O)N[C@@H](CC(C)C)C(=O)N[C@@H]1[C@@H](O)[C@H](O)[C@@H](CO)O[C@H]1O [I-49, (4Z,7Z,10Z,13Z,16Z,19Z)-N-((S)-4-methyl-1-oxo-1-(((2R,3R,4R,5S,6R)-2,4,5-trihydroxy-6-(hydroxymethyl)tetrahydro-2H-pyran-3-yl)amino)pentan-2-yl)docosa-4,7,10,13,16,19-hexaenamide]	< 50 µM	
CC/C=C\C/C=C\C/C=C\C/C=C\C/C=C\C/C=C\CCC(=O)N[C@@H](C)C(=O)N[C@@H]1[C@@H](O)[C@H](O)[C@@H](CO)O[C@H]1O [I-47, (4Z,7Z,10Z,13Z,16Z,19Z)-N-((S)-1-oxo-1-(((2R,3R,4R,5S,6R)-2,4,5-trihydroxy-6-(hydroxymethyl)tetrahydro-2H-pyran-3-yl)amino)propan-2-yl)docosa-4,7,10,13,16,19-hexaenamide]	> 200 µM	
CC/C=C\C/C=C\C/C=C\C/C=C\C/C=C\CCCC(=O)NCCSSCCNC(C)=O [I-9, (5Z,8Z,11Z,14Z,17Z)-N-(2-((2-acetamidoethyl)disulfanyl)ethyl)icosa-5,8,11,14,17-pentaenamide]		reduction in the cystine level [1]: 68%
CC/C=C\C/C=C\C/C=C\C/C=C\C/C=C\C/C=C\CCC(=O)Nc1nc2c(s1)C[C@H](NCCC)CC2 [I-21, (4Z,7Z,10Z,13Z,16Z,19Z)-N-((R)-6-(propylamino)-4,5,6,7-tetrahydrobenzo[d]thiazol-2-yl)docosa-4,7,10,13,16,19-hexaenamide]	< 200 µM	
CC/C=C\C/C=C\C/C=C\C/C=C\C/C=C\C/C=C\CCC(=O)NCCOCCOCCOC [I-52, (4Z,7Z,10Z,13Z,16Z,19Z)-N-(2-(2-(2-methoxyethoxy)ethoxy)ethyl)docosa-4,7,10,13,16,19-hexaenamide]	< 50 µM	
